This note sets out measurements from patent publication US20250025438A1, “Derivative of aspartic acid and use thereof in treatment of metabolic diseases such as hepatic fibrosis and non-alcoholic hepatitis” (SHENZHEN JINGTAI TECHNOLOGY CO., LTD., priority 2021, published 2025).

The inhibition is the relative decrease from the control value, in per cent.

Holding throughout (assay type): cell-based
The test system of one assay is collagen 1. Kind of assay: In-vitro liver fibrosis model in activated LX2 cells (TGFβ1), qPCR: collagen 1. The settings on record: LX-2 cells activated with TGFβ1 (5 ng/mL), 25 μM compound, 24 hours, real-time PCR. The procedure: (§1) This experiment was performed strictly in accordance with the instructions of the Total RNA Kit. The steps were as follows (note: this experiment was performed on ice throughout the entire process, and special RNase-free tips were used throughout the entire process): • 1) The 12-well cell culture plate was taken out from the incubator, the cell culture medium was discarded, the cells were washed twice with 1 mL of 1×PBS, and a negative pressure suction device was used to fully remove PBS; • 2) 350 μL of TRK Lysis Buffer mixture/well was prepared as needed (mixture preparation method: 1 mL of TRKLysis Buffer+20 μL of β-mercaptoethanol), vortexed and mixed well. 350 μL was added to each well of the 12-well cell culture plate, and allowed to stand at room temperature for 5 minutes to fully lyse the cells; • 3) 70% ethanol/well was prepared as needed, vortexed and mixed well. 350 μL was added to each well of the 12-well cell culture plate, mixed well by shaking, and transferred to the spin column (spin column+collection tube were assembled); • 4) Centrifugation was performed at 4° C., 12000 g for 60 sec. […]

The next assay concerns COL1A2. The experiment in a line: In vitro efficacy in semi-activated LX2 cells, qPCR: COL1A2. The settings on record: Homo sapiens, LX-2, 48 hours, Q-PCR, read-out: COL1A2 mRNA inhibition rate. The procedure:
Test compounds were added to the LX-2 cells respectively, and total RNA in the cells was extracted 48 hours later. This experiment was performed strictly in accordance with the instructions of the Total RNA Kit. The steps were as follows (note: this experiment was performed on ice throughout the entire process, and special RNase-free tips were used throughout the entire process): • 1) The 12-well cell culture plate was taken out from the incubator, the cell culture medium was discarded, the cells were washed twice with 1 mL of 1×PBS, and a negative pressure suction device was used to fully remove PBS; • 2) 350 μL of TRK Lysis Buffer mixture/well was prepared as needed (mixture preparation method: 1 mL of TRKLysis Buffer+20 μL of β-mercaptoethanol), vortexed and mixed well. 350 μL was added to each well of the 12-well cell culture plate, and allowed to stand at room temperature for 5 minutes to fully lyse the cells; • 3) 70% ethanol/well was prepared as needed, vortexed and mixed well. 350 μL was added to each well of the 12-well cell culture plate, mixed well by shaking, and transferred to the spin column (spin column+collection tube were assembled); • 4) Centrifugation was performed at 4° C., 12000 g for 60 sec. The waste liquid was discarded after centrifugation, while the spin column was kept; • 5) 500 μL of RNA Wash Buffer I was added, centrifuged at 4° C., 12000 g for 60 sec, the waste liquid was discarded after centrifugation, and the collection column was kept; • 6) 500 μL of RNA Wash Buffer II (confirmed that ethanol had been added) was added, centrifuged at 4° C., 12000 g for 60 sec, the waste liquid was discarded after centrifugation, and the collection column was kept; • 7) step 6) was repeated once again, centrifugation was performed at 4° C., 12000 g for 90 sec, the waste liquid was discarded after centrifugation, and the collection column was kept; • 8) Centrifugation was performed at 4° C., 12000 g for 120 sec to ensure that the spin column was fully dried; • 9) The dried spin column was inserted into a new 1.5 mL EP tube, and 30 μL of DEPC water was added to the membrane in the center of the spin column. It should be careful not to touch the EP tube cover in this step. It was allowed to stand at room temperature for 5 minutes to ensure that the RNA was fully dissolved in DEPC water. Centrifugation was performed at 4° C., 12000 g for 60 sec, and the EP tube was kept; • 10) NanoDrop ultra-micro-volume spectrophotometer was used to detect RNA concentration;
5.2 Reverse transcription of RNA into cDNA: According to the instructions of PrimeScript™ RT reagent Kit (Perfect Real Time), the specific experimental steps were as follows:
5.3 Q-PCR detection of target gene expression: According to the instructions of Power SYBR® Green PCR Master Mix, the specific operations were as follows:
After the reaction was completed, the amplification curve and dissolution curve of Q-PCR were confirmed, and the relative quantification method ([…]) was used to perform data analysis on the experimental results.
LX2 cells were passaged and plated normally. After adherent growth for 12 hours, 50 µM of the test compound was added. After 48 hours, the cells were collected, total RNA was extracted, and Q-PCR was used to detect the changes in the mRNA expression levels of liver fibrosis-related genes (ACTA2 encoding α-SMA, COL1A1 and COLIA2 encoding collagen I, COL3A1 encoding collagen III, SMAD3 encoding Smad3) and inflammation-related genes (IL1β encoding IL-1β, TNFα encoding TNFα) (for specific methods, see 5. Q-PCR detection of target gene expression as described above). α-SMA was a marker of hepatic stellate cell activation, and collagen I and collagen III were the main components of extracellular matrix deposition.
A general note: In qPCR the cycle at which signal appears reflects the starting amount.

A further assay deals with collagen 3. The experiment in a line: In-vitro liver fibrosis model in activated LX2 cells (TGFβ1), qPCR: collagen 3. The settings on record: LX-2 cells activated with TGFβ1 (5 ng/mL), 25 μM compound, 24 hours, real-time PCR. The procedure:
as §1

Each structure is given as a SMILES string.

Take `COC(=O)[C@@H](N)CC(=O)O` [Compound 4]: the “collagen 1 gene expression inhibition rate” value with collagen 1 is “A (A represented that the inhibition rate was 25% or above)”. Also, the inhibition at 50 µM with COL1A2 was 1 to 10%. Further, in the assay on collagen 3, the “collagen 3 gene expression inhibition rate” value is “A (A represented that the inhibition rate was 25% or above)”.
In the case of `COC(=O)C[C@H](N)C(=O)O` [Compound 6], the “collagen 1 gene expression inhibition rate” value in the assay with collagen 1 is on record as “B (B represented that the inhibition rate was 10% to 25%)”. Further, the inhibition at 50 µM in the assay on COL1A2 is 1 to 10%. Besides, the “collagen 3 gene expression inhibition rate” value in the assay with collagen 3 is “A (A represented that the inhibition rate was 25% or above)”.
